Holding throughout (format): cell-based
One assay has as its target T1, SMARCA4 (Homo sapiens, UniProt P51532).
T1 construct: SMARCA2 and SMARCA4 protein degradation in MV4-11 cells; endogenous in cells; host or cells: MV4-11
The experiment in a line: SMARCA4 Western blot MV4-11 degradation. The following applies: 24 h; for Dmax: MV4-11, MV4-11 cells, read-out: SMARCA4 WB MV411 degradation 24 h: Average Dmax %; for DC50: MV4-11 cells, read-out: SMARCA4 WB MV411 degradation 24 h: Average external-Abs DC50. The method, boiled down:
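MV4-11 cells treated with compound for 24 h, lysed in RIPA with protease/phosphatase inhibitors, and SMARCA2 and SMARCA4 (BRG1) levels assessed by Western blot with β-actin loading control and LI-COR fluorescent read-out. Maximal degradation (Dmax %) after 24 h binned into letter codes.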

Assay [1] addresses T2, SMARCA2 (Homo sapiens, UniProt P51531). The experiment in a line: SMARCA2 Western blot MV4-11 degradation. The following applies: 24 h; for DC50: MV4-11 cells, read-out: SMARCA2 WB MV411 degradation 24 h: Average external-Abs DC50; for Dmax: MV4-11, MV4-11 cells, read-out: SMARCA2 WB MV411 degradation 24 h: Average Dmax %. As for the experimental part: Cells were seeded into 6-well plates (MV4-11: 4×10^6 cells/well/1 ml) and 1 ml of 2× compound solution was added into the well to make the final concentration and the plates were mixed well and incubated for 24 hours (No cytotoxicity was observed). The cell were collected with media and spun at 3000 rpm for 5 minutes. The supernatant was aspirated and the well and the cells were washed with cold PBS once and combined for centrifugation again; the supernatant aspirated again. 200 ul pre-chilled RIPAlysis buffer (Boston BioProducts BP-115D) with protease/phosphatase inhibitor (Roche 05892791001/Roche 04906837001) was directly added into the tube to lyze the cells for 20 minutes on ice. The cell lysate were collected into EP tubes and spun at 13000 rpm for 20 minutes and 72 ul supernatant was transferred to a fresh EP tube containing 18 ul of 5× loading buffer (Beyotime Bio P0015) to make the loading samples. The samples were heated to 100° C. for 10 minutes and cooled to RT and microcentrifuged. 20 ul of samples were loaded onto SDS-PAGE gel (Novex, WG1402BOX) and the gel was run at 80 V for 20 minutes and 120 V for 1.5 hours. The samples were electrotransfer to a NC membrane using wet-transfer method with 250 mA for 2.5 hours. The membrane was blocked with LICOR blocking buffer (LI-COR, 927-50000) for 1 hour. The membrane was washed three times with TBST (CST #9997S), 5 minutes each. Incubation was performed with primary antibody prepared in blocking buffer with 0.1% Tween-20 (Solarbio, P8220) at 4° C. overnight (Anti-SMARCA2/BRM antibody (ab15597) 1:500; Anti-BRG1 antibody [EPR3912] (ab108318) 1:1000; Rabbit anti-Baf180 antibody [EPR15860] (Abcam, ab196022) 1:1000; mouse anti-beta-Actin (8H10D10) (CST #3700) 1:10000). The membrane was washed three times with TBST, 5 minutes each. Incubation with secondary antibody was performed for 1 hour at RT (anti-rabbit IgG (Licor, 926-32211) 1:5000; anti-mouse IgG (LI-COR, 926-68070) 1:5000). The membrane was washed three times with TBST, 5 minutes each and lastly the LiCOR was read.
The letter codes for the percentage of SMARCA degradation after 24 hours (Dmax %) include: A (>90% degradation), B (>70-90% degradation), C (50-70% degradation), and D (<50% degradation).

Assay [2] has as its target T2, SMARCA2. The experiment in a line: MSD SMARCA2 degradation in A549 cell line. The following applies: 24 h; for Dmax: A549, A549 cells; for DC50: A549 cells, read-out: SMARCA2 MSD A549 degradation 24 h: Average external-Abs DC50. An outline of the steps:
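SMARCA2 remaining was measured by MSD electrochemiluminescence on RIPA lysates (anti-SMARCA2 plus SULFO-TAG anti-rabbit). Prior exposure: 24 h of A549 cells to a 10-point, 3-fold dilution series topping at 1000 nM final; Dmax % given as graded codes.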

The structures appear in SMILES notation.

T2 sequence (P51531 whole entry): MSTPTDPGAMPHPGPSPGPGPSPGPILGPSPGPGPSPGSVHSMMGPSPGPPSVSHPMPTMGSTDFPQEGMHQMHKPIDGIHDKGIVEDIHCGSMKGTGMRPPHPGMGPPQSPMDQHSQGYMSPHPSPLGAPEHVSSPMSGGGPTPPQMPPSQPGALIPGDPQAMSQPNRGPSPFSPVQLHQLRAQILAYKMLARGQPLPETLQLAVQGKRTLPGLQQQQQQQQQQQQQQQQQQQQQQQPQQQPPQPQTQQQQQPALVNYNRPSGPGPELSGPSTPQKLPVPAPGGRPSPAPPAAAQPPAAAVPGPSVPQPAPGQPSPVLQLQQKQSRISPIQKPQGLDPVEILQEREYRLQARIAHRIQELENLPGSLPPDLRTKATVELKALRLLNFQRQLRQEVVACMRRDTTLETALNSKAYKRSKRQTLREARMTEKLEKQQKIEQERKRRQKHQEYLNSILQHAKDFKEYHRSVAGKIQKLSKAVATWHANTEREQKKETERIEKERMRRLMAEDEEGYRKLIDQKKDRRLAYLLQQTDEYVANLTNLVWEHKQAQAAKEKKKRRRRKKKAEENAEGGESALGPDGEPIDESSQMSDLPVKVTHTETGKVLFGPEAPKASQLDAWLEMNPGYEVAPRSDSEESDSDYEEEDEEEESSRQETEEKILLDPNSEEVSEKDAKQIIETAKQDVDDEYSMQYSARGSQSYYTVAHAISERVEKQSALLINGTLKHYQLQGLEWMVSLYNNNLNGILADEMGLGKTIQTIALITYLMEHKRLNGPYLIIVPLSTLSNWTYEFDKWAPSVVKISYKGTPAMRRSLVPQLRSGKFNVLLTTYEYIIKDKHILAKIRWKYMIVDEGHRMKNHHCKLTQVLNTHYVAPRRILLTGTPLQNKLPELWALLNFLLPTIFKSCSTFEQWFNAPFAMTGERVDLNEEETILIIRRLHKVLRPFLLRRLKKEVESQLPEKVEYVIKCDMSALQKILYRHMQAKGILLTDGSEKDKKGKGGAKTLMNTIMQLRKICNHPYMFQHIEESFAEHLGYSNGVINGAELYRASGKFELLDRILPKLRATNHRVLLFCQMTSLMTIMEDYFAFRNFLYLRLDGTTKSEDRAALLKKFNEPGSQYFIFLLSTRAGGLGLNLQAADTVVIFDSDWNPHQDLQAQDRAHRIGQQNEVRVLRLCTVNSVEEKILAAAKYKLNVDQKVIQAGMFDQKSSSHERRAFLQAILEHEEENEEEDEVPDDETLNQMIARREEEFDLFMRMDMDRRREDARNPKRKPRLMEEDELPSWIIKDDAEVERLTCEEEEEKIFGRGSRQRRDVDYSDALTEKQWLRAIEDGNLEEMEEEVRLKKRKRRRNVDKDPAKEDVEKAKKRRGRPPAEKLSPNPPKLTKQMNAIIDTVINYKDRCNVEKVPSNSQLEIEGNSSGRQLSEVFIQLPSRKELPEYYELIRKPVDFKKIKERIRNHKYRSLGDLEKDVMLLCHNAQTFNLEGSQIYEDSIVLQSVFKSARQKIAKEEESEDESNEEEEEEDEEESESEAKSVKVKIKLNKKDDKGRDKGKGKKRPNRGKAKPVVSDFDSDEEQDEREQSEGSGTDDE
T1 sequence (P51532 whole entry): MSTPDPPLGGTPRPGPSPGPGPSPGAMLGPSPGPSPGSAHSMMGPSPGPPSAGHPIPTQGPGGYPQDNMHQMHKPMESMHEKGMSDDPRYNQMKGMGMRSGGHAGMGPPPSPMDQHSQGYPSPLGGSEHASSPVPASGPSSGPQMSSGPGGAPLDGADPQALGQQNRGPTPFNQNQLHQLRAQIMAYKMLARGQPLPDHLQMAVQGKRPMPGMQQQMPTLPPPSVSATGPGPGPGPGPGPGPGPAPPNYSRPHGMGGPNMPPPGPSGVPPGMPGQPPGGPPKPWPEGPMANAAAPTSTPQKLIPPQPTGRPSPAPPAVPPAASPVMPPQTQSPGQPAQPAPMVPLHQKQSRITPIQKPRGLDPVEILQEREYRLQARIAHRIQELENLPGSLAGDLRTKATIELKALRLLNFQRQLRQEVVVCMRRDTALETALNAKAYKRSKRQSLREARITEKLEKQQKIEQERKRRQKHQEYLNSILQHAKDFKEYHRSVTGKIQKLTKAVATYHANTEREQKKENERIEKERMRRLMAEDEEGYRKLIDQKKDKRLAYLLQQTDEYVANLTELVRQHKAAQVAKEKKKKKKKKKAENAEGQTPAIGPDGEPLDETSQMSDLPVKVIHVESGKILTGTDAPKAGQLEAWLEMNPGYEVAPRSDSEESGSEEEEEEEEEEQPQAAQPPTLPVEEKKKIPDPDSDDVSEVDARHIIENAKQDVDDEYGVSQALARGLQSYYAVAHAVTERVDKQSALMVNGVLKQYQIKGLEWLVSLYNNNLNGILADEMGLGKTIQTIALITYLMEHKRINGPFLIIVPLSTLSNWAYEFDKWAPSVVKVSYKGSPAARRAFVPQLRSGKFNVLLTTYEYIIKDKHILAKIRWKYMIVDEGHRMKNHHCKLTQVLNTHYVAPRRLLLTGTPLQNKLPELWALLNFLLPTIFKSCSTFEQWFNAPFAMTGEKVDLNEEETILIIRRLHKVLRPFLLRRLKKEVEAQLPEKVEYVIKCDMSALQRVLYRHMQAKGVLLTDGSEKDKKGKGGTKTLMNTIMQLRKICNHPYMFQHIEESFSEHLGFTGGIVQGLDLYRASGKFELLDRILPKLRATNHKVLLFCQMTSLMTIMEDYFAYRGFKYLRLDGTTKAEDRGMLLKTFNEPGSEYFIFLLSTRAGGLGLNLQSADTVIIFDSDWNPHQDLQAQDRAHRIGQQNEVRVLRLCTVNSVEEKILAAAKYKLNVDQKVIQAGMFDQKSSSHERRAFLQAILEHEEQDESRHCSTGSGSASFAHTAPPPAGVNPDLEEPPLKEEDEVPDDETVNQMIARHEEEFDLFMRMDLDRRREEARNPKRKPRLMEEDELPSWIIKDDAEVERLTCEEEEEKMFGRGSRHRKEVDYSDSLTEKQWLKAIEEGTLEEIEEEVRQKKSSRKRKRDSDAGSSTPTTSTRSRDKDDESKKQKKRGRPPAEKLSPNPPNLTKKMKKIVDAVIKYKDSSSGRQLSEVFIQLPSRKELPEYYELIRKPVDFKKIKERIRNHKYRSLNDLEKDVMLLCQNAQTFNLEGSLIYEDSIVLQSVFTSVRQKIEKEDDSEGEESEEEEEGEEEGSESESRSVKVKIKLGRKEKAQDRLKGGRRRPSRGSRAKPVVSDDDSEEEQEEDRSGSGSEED

For `Cn1c(=O)n(C2CCC(=O)NC2=O)c2ccc([C@H]3CC[C@H](N4CCC(c5cnc(N6C7CCC6CN(c6cc(-c8ccccc8O)nnc6N)C7)nc5)CC4)CC3)cc21` (stereo partly shown) [I-291], the Dmax at SMARCA4 and at SMARCA2 [2] was > 90% in each case. In addition, the DC50 on SMARCA4, at SMARCA2 [1] and at SMARCA2 [2] was < 100 nM in each case.
Regarding `Cc1ncsc1-c1ccc(CNC(=O)[C@@H]2C[C@@H](O)CN2C(=O)[C@@H](NC(=O)[C@H]2CC[C@H](c3cnc(N4C5CCC4CN(c4cc(-c6ccccc6O)nnc4N)C5)nc3C)CC2)C(C)(C)C)cc1` [I-412], the Dmax on SMARCA4, on SMARCA2 [1] and on SMARCA2 [2] was > 90% throughout. The DC50 at SMARCA4, at SMARCA2 [1] and at SMARCA2 [2] was < 100 nM throughout.
As to `Cn1c(=O)n(C2CCC(=O)NC2=O)c2ccc(C3CC4(C3)CC(N3CCC(c5cnc(N6C7CCC6CN(c6cc(-c8ccccc8O)nnc6N)C7)nc5)CC3)C4)cc21` (single isomer, unassigned) [I-536 (P1), 3-(5-(6-(4-(2-(3-(3-amino-6-(2-hydroxyphenyl)pyridazin-4-yl)-3,8-diazabicyclo[3.2.1]octan-8-yl)pyrimidin-5-yl)piperidin-1-yl)spiro[3.3]heptan-2-yl)-3-methyl-2-oxo-2,3-dihydro-1H-benzo[d]imidazol-1-yl)piperidine-2,6-dione], the DC50 at SMARCA4, at SMARCA2 [1] and on SMARCA2 [2] was < 100 nM throughout.
With `Cc1ncsc1-c1ccc(CNC(=O)[C@@H]2C[C@@H](O)CN2C(=O)[C@@H](NC(=O)C2CCC(c3cnc(N4C5CCC4CN(c4cc(-c6ccccc6O)nnc4N)C5)nc3)CC2C)C(C)(C)C)cc1` (stereo partly shown) [I-411], the figures for the Dmax on SMARCA4, at SMARCA2 [1] and at SMARCA2 [2] were > 90%, > 90% and 50 to 70%, respectively. For the same compound, the DC50 is < 100 nM at SMARCA4, < 100 nM on SMARCA2 [1] and 501 to 1000 nM at SMARCA2 [2].
For the compound `Cc1ncsc1-c1ccc(CNC(=O)[C@@H]2C[C@@H](O)CN2C(=O)[C@@H](NC(=O)[C@H]2C[C@@H](N3CCC(c4cnc(N5C6CCC5CN(c5cc(-c7ccccc7O)nnc5N)C6)nc4)CC3)C2)C(C)(C)C)cc1` [I-349], the Dmax on SMARCA4 is < 50%; on SMARCA2 [1] it was 70 to 90%; at SMARCA2 [2], > 90%. For the same compound, the DC50 at SMARCA4 is 501 to 1000 nM; at SMARCA2 [1], < 100 nM; on SMARCA2 [2] it was 100 to 500 nM.
Consider `Cc1ncsc1-c1ccc(CNC(=O)[C@@H]2C[C@@H](O)CN2C(=O)[C@@H](NC(=O)CN2C3CCC2CC(c2cnc(N4C5CCC4CN(c4cc(-c6ccccc6O)nnc4N)C5)nc2)C3)C(C)(C)C)cc1` (stereo partly shown) [I-509], for which the Dmax on SMARCA4 was 70 to 90%; on SMARCA2 [1], 70 to 90%; at SMARCA2 [2], > 90%. The DC50 at SMARCA4 is > 1000 nM; on SMARCA2 [1], < 100 nM; on SMARCA2 [2] it was 100 to 500 nM.
Turning to `Cc1ncsc1-c1ccc(CNC(=O)[C@@H]2C[C@@H](O)CN2C(=O)[C@@H](NC(=O)CN2CCN([C@H]3CC[C@H](c4cnc(N5C6CCC5CN(c5cc(-c7ccccc7O)nnc5N)C6)nc4)CC3)CC2)C(C)(C)C)cc1` (single isomer, unassigned) [I-446, (2S,4R)-1-((2S)-2-(2-(4-((1r,4S)-4-(2-(3-(3-amino-6-(2-hydroxyphenyl)pyridazin-4-yl)-3,8-diazabicyclo[3.2.1]octan-8-yl)pyrimidin-5-yl)cyclohexyl)piperazin-1-yl)acetamido)-3,3-dimethylbutanoyl)-4-hydroxy-N-(4-(4-methylthiazol-5-yl)benzyl)pyrrolidine-2-carboxamide], the Dmax at SMARCA4, at SMARCA2 [1] and on SMARCA2 [2] was > 90% each time.
As for `Cc1ncsc1-c1ccc(CNC(=O)[C@@H]2C[C@@H](O)CN2C(=O)[C@@H](NC(=O)[C@H]2C[C@@]3(C2)C[C@H](c2cnc(N4C5CCC4CN(c4cc(-c6ccccc6O)nnc4N)C5)nc2)C3)C(C)(C)C)cc1` (stereo partly shown) [I-369], the DC50 at SMARCA4, on SMARCA2 [1] and on SMARCA2 [2] was < 100 nM in each case.
For `Cc1ncsc1-c1ccc(CNC(=O)[C@@H]2C[C@@H](O)CN2C(=O)[C@@H](NC(=O)[C@H]2CC[C@H](c3cnc(N4C5CCC4CN(c4cc(-c6ccccc6O)nnc4N)C5)nc3)CC2)C(C)(C)C)c(C(F)(F)F)c1` [I-404], the maximal degradation (Dmax) on SMARCA4 was 70 to 90%; on SMARCA2 [1] it was > 90%; at SMARCA2 [2], > 90%. The DC50 is 100 to 500 nM at SMARCA4, < 100 nM on SMARCA2 [1] and 100 to 500 nM at SMARCA2 [2].
As for `Cc1ncsc1-c1ccc(CNC(=O)[C@@H]2C[C@@H](O)CN2C(=O)[C@@H](NC(=O)[C@H]2CC[C@H](CCCN3CCC(n4cc(-c5cc(-c6ccccc6O)nnc5N)cn4)CC3)CC2)C(C)(C)C)cc1` [I-401], the Dmax is 70 to 90% on SMARCA4, > 90% on SMARCA2 [1] and > 90% on SMARCA2 [2]. Also, the DC50 on SMARCA4 is 100 to 500 nM; at SMARCA2 [1], < 100 nM; at SMARCA2 [2] it was 100 to 500 nM.
Take `CC(=O)O[C@@H]1C[C@@H](C(=O)NCc2ccc(-c3scnc3C)cc2)N(C(=O)[C@@H](NC(=O)[C@H]2CC[C@H](c3cnc(N4C5CCC4CN(c4cc(-c6ccccc6O)nnc4N)C5)nc3)CC2)C(C)(C)C)C1` [I-408]: the Dmax on SMARCA4, at SMARCA2 [1] and at SMARCA2 [2] was > 90% throughout. For the same compound, the DC50 on SMARCA4, on SMARCA2 [1] and on SMARCA2 [2] was < 100 nM in each case.
With `Cc1ncsc1-c1ccc(CNC(=O)[C@@H]2C[C@@H](O)CN2C(=O)[C@@H](NC(=O)CN2CCN([C@H]3CC[C@H](c4cnc(N5C6CCC5CN(c5cc(-c7ccccc7O)nnc5N)C6)nc4)CC3)CC2)C(C)(C)C)cc1` (single isomer, unassigned) [I-446], the DC50 on SMARCA4, at SMARCA2 [1] and on SMARCA2 [2] was < 100 nM in each case.
On to `Cc1ncsc1-c1ccc([C@H](C)NC(=O)[C@@H]2C[C@@H](O)CN2C(=O)[C@@H](NC(=O)[C@H]2CC[C@H](c3cnc(N4C5CCC4CN(c4cc(-c6ccccc6O)nnc4N)C5)nc3)CC2)C(C)(C)C)cc1` [I-438], for which the Dmax at SMARCA4, on SMARCA2 [1] and at SMARCA2 [2] was > 90% throughout. Moreover, the DC50 on SMARCA4, on SMARCA2 [1] and on SMARCA2 [2] was < 100 nM each time.
Turning to `Cc1ncsc1-c1ccc(CNC(=O)[C@@H]2C[C@@H](O)CN2C(=O)[C@@H](NC(=O)[C@H]2C[C@]3(C[C@H](CN4CCC(c5cnc(N6C7CCC6CN(c6cc(-c8ccccc8O)nnc6N)C7)nc5)CC4)C3)C2)C(C)(C)C)cc1` (stereo partly shown) [I-427], the Dmax on SMARCA4 is < 50%; on SMARCA2 [1], > 90%. Also, the DC50 on SMARCA4 was 100 to 500 nM; at SMARCA2 [1], < 100 nM; at SMARCA2 [2] it was < 100 nM.
In the case of `Cn1c(=O)n(C2CCC(=O)NC2=O)c2ccc([C@H]3CC[C@@H](N4CCC(c5cnc(N6C7CCC6CN(c6cc(-c8ccccc8O)nnc6N)C7)nc5)CC4)CC3)cc21` (stereo partly shown) [I-277], the Dmax at SMARCA4, on SMARCA2 [1] and at SMARCA2 [2] was > 90% each time. Further, the DC50 on SMARCA4, on SMARCA2 [1] and at SMARCA2 [2] was < 100 nM in each case.

For the origin of these results see patent US12624044B2, “SMARCA degraders and uses thereof” (Kymera Therapeutics, Inc., priority 2019, dated 2026).
